Data taken from article PMC7313537 (PLoS ONE, 2020).

Key:
Assay in all cases: Broader kinase panel (PerkinElmer)
Assay type in all cases: biochemical
Details in all cases: 100 nM; read-out: Average Percent Inhibition
ABL1(G250E) = molecular target: T1, ABL1(G250E) (Homo sapiens, UniProt P00519, G250E)
T1 construct: purchased In-house HTRF panel (56 kinases) and PerkinElmer (161-kinase panel)
From the text: (§1) […]. […] […].

AKT3 = molecular target: T2, AKT3 (Homo sapiens, UniProt Q9Y243)
T2 construct: purchased In-house HTRF panel (56 kinases) and PerkinElmer (161-kinase panel)
From the text: as §1

ALK = molecular target: T3, ALK (Homo sapiens, UniProt Q9UM73)
T3 construct: purchased In-house HTRF panel (56 kinases) and PerkinElmer (161-kinase panel)
From the text: as §1

[1] = molecular target: T4, AMPK-alpha2/beta1/gamma 1 (Homo sapiens, UniProt P54646)
T4 construct: purchased In-house HTRF panel (56 kinases) and PerkinElmer (161-kinase panel)
From the text: as §1

Abl (Q252H) = molecular target: T5, Abl (Q252H) (Homo sapiens, UniProt P00519, Q252H)
T5 construct: purchased In-house HTRF panel (56 kinases) and PerkinElmer (161-kinase panel)
From the text: as §1

AurA = molecular target: T6, AurA (Homo sapiens, UniProt O14965)
T6 construct: purchased In-house HTRF panel (56 kinases) and PerkinElmer (161-kinase panel)
From the text: as §1

CDK1/Cycline B1 = molecular target: T7, CDK1/Cycline B1 (Homo sapiens, UniProt P06493)
T7 construct: purchased In-house HTRF panel (56 kinases) and PerkinElmer (161-kinase panel)
From the text: as §1

CK1d = molecular target: T8, CK1d (Homo sapiens, UniProt P48730)
T8 construct: purchased In-house HTRF panel (56 kinases) and PerkinElmer (161-kinase panel)
From the text: as §1

Ca MK2a = molecular target: T9, Ca MK2a (Homo sapiens, UniProt Q9UQM7)
T9 construct: purchased In-house HTRF panel (56 kinases) and PerkinElmer (161-kinase panel)
From the text: as §1

DCAMKL2 = molecular target: T10, DCAMKL2 (Homo sapiens, UniProt Q8N568)
T10 construct: purchased In-house HTRF panel (56 kinases) and PerkinElmer (161-kinase panel)
From the text: as §1

DYRK4 = molecular target: T11, DYRK4 (Homo sapiens, UniProt Q9NR20)
T11 construct: purchased In-house HTRF panel (56 kinases) and PerkinElmer (161-kinase panel)
From the text: as §1

EGFR(T790M) = molecular target: T12, EGFR(T790M) (Homo sapiens, UniProt P00533, T790M)
T12 construct: purchased In-house HTRF panel (56 kinases) and PerkinElmer (161-kinase panel)
From the text: as §1

FYN = molecular target: T13, FYN (Homo sapiens, UniProt P06241)
T13 construct: purchased In-house HTRF panel (56 kinases) and PerkinElmer (161-kinase panel)
From the text: as §1

GSK3-alpha = molecular target: T14, GSK3-alpha (Homo sapiens, UniProt P49840)
T14 construct: purchased In-house HTRF panel (56 kinases) and PerkinElmer (161-kinase panel)
From the text: as §1

HIPK1 = molecular target: T15, HIPK1 (Homo sapiens, UniProt Q86Z02)
T15 construct: purchased In-house HTRF panel (56 kinases) and PerkinElmer (161-kinase panel)
From the text: as §1

IKBKE (IKK epsilon) = molecular target: T16, IKBKE (IKK epsilon) (Homo sapiens, UniProt Q14164)
T16 construct: purchased In-house HTRF panel (56 kinases) and PerkinElmer (161-kinase panel)
From the text: as §1

LCK = LCK (Homo sapiens, UniProt P06239)
From the text: as §1

LYN = molecular target: T17, LYN (Homo sapiens, UniProt P07948)
T17 construct: purchased In-house HTRF panel (56 kinases) and PerkinElmer (161-kinase panel)
From the text: as §1

MARK4 = molecular target: T18, MARK4 (Homo sapiens, UniProt Q96L34)
T18 construct: purchased In-house HTRF panel (56 kinases) and PerkinElmer (161-kinase panel)
From the text: as §1

MSK2 = molecular target: T19, MSK2 (Homo sapiens, UniProt O75676)
T19 construct: purchased In-house HTRF panel (56 kinases) and PerkinElmer (161-kinase panel)
From the text: as §1

MST1 = molecular target: T20, MST1 (Homo sapiens, UniProt Q13043)
T20 construct: purchased In-house HTRF panel (56 kinases) and PerkinElmer (161-kinase panel)
From the text: as §1

MST2 = molecular target: T21, MST2 (Homo sapiens, UniProt Q13188)
T21 construct: purchased In-house HTRF panel (56 kinases) and PerkinElmer (161-kinase panel)
From the text: as §1

Mer = molecular target: T22, Mer (Homo sapiens, UniProt Q12866)
T22 construct: purchased In-house HTRF panel (56 kinases) and PerkinElmer (161-kinase panel)
From the text: as §1

NEK2 = molecular target: T23, NEK2 (Homo sapiens, UniProt P51955)
T23 construct: purchased In-house HTRF panel (56 kinases) and PerkinElmer (161-kinase panel)
From the text: as §1

NTRK2 (TRKB) = molecular target: T24, NTRK2 (TRKB) (Homo sapiens, UniProt Q16620)
T24 construct: purchased In-house HTRF panel (56 kinases) and PerkinElmer (161-kinase panel)
From the text: as §1

NuaK1 = molecular target: T25, NuaK1 (Homo sapiens, UniProt O60285)
T25 construct: purchased In-house HTRF panel (56 kinases) and PerkinElmer (161-kinase panel)
From the text: as §1

PDGFRA (D842V) = molecular target: T26, PDGFRA (D842V) (Homo sapiens, UniProt P16234, D842V)
T26 construct: purchased In-house HTRF panel (56 kinases) and PerkinElmer (161-kinase panel)
From the text: as §1

PIM1 = molecular target: T27, PIM1 (Homo sapiens, UniProt P11309)
T27 construct: purchased In-house HTRF panel (56 kinases) and PerkinElmer (161-kinase panel)
From the text: as §1

PKC-eta = molecular target: T28, PKC-eta (Homo sapiens, UniProt P24723)
T28 construct: purchased In-house HTRF panel (56 kinases) and PerkinElmer (161-kinase panel)
From the text: as §1

PKD1 = molecular target: T29, PKD1 (Homo sapiens, UniProt Q15139)
T29 construct: purchased In-house HTRF panel (56 kinases) and PerkinElmer (161-kinase panel)
From the text: as §1

PYK2 = molecular target: T30, PYK2 (Homo sapiens, UniProt Q14289)
T30 construct: purchased In-house HTRF panel (56 kinases) and PerkinElmer (161-kinase panel)
From the text: as §1

ROCK1 = ROCK1 (Homo sapiens, UniProt Q13464)
From the text: as §1

RSK1 = molecular target: T31, RSK1 (Homo sapiens, UniProt Q15418)
T31 construct: purchased In-house HTRF panel (56 kinases) and PerkinElmer (161-kinase panel)
From the text: as §1

Ret (V804L) = molecular target: T32, Ret (V804L) (Homo sapiens, UniProt P07949, V804L)
T32 construct: purchased In-house HTRF panel (56 kinases) and PerkinElmer (161-kinase panel)
From the text: as §1

SGK1 = molecular target: T33, SGK1 (Homo sapiens, UniProt O00141)
T33 construct: purchased In-house HTRF panel (56 kinases) and PerkinElmer (161-kinase panel)
From the text: as §1

SRC = molecular target: T34, SRC (Homo sapiens, UniProt P12931)
T34 construct: purchased In-house HTRF panel (56 kinases) and PerkinElmer (161-kinase panel)
From the text: as §1

TEC = molecular target: T35, TEC (Homo sapiens, UniProt P42680)
T35 construct: purchased In-house HTRF panel (56 kinases) and PerkinElmer (161-kinase panel)
From the text: as §1

TRKC (NTRK3) = molecular target: T36, TRKC (NTRK3) (Homo sapiens, UniProt Q16288)
T36 construct: purchased In-house HTRF panel (56 kinases) and PerkinElmer (161-kinase panel)
From the text: as §1

TYRO3 = molecular target: T37, TYRO3 (Homo sapiens, UniProt Q06418)
T37 construct: purchased In-house HTRF panel (56 kinases) and PerkinElmer (161-kinase panel)
From the text: as §1

c-TAK1 = molecular target: T38, c-TAK1 (Homo sapiens, UniProt P27448)
T38 construct: purchased In-house HTRF panel (56 kinases) and PerkinElmer (161-kinase panel)
From the text: as §1

p38-delta = molecular target: T39, p38-delta (Homo sapiens, UniProt O15264)
T39 construct: purchased In-house HTRF panel (56 kinases) and PerkinElmer (161-kinase panel)
From the text: as §1

p38a = molecular target: T40, p38a (Homo sapiens, UniProt Q16539)
T40 construct: purchased In-house HTRF panel (56 kinases) and PerkinElmer (161-kinase panel)
From the text: as §1

T38 sequence (P27448 whole entry): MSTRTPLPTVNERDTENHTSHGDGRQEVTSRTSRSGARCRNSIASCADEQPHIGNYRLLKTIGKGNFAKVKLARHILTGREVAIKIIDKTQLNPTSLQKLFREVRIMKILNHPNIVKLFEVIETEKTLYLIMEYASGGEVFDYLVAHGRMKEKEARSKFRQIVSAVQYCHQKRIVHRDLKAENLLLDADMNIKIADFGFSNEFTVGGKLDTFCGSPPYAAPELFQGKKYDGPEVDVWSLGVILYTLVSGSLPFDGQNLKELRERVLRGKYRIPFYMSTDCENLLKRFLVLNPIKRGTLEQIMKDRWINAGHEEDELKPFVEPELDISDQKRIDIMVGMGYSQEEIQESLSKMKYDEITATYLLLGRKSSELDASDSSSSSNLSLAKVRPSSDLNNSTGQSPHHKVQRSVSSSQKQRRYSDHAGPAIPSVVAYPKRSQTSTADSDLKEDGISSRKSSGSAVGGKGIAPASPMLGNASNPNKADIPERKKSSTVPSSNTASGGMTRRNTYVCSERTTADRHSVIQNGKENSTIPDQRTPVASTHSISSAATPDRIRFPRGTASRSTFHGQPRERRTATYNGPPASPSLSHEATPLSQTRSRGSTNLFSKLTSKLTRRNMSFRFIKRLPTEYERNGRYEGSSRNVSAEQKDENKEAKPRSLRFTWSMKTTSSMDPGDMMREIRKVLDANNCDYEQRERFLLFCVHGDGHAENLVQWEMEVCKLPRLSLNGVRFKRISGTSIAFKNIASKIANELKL
T18 sequence (Q96L34 whole entry): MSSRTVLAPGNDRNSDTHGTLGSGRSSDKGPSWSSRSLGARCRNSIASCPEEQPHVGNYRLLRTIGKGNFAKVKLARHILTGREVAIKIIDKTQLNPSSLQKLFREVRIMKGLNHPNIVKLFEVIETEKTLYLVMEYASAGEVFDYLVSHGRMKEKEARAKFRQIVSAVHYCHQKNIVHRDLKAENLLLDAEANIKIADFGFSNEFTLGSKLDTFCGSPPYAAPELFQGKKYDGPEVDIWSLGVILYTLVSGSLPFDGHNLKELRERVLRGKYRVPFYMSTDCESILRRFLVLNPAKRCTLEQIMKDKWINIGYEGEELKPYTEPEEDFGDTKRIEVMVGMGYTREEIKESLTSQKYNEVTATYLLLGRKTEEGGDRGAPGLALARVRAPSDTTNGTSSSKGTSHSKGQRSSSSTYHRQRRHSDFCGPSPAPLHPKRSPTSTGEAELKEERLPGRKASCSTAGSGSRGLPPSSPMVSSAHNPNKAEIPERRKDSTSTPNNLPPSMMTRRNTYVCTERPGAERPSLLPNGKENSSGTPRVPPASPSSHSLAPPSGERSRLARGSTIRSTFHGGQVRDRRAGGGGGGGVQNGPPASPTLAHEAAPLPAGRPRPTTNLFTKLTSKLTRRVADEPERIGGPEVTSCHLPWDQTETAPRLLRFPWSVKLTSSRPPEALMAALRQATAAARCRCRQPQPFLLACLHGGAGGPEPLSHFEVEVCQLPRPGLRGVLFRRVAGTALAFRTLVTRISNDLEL
ROCK1, sequence (Q13464 whole entry, species assumed): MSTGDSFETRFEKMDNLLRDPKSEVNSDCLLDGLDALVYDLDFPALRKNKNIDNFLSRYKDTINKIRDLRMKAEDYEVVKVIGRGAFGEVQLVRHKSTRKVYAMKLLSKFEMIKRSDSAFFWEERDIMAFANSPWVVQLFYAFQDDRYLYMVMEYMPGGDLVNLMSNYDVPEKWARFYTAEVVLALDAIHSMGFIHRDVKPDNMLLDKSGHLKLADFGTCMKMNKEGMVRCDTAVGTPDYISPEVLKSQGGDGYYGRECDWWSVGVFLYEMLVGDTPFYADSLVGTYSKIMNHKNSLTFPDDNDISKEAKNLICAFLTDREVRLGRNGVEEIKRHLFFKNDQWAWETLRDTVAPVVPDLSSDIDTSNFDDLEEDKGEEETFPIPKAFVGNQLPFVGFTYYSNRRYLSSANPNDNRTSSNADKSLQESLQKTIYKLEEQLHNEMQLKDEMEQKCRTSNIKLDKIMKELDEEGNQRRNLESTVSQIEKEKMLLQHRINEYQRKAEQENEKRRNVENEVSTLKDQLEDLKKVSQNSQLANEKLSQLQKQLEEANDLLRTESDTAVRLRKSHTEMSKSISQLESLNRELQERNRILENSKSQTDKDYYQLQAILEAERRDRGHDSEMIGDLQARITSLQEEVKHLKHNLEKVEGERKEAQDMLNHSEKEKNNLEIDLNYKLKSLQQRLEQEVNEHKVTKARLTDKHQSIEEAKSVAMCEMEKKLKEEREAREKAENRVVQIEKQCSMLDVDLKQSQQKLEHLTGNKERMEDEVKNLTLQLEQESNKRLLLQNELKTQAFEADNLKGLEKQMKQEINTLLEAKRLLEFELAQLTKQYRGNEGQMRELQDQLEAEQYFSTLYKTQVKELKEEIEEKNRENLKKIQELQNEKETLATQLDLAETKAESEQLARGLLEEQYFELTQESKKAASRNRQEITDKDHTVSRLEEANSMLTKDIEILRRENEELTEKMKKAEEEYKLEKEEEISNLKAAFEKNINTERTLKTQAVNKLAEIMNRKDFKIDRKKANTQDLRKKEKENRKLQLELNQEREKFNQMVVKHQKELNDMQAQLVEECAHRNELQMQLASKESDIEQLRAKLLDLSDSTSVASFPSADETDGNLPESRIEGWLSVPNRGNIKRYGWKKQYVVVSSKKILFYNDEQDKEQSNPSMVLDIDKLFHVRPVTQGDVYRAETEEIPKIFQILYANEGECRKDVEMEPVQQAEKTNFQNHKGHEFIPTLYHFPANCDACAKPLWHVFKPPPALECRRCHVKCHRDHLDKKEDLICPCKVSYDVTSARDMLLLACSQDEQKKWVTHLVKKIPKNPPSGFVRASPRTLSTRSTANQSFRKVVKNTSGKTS
T30 sequence (Q14289 whole entry): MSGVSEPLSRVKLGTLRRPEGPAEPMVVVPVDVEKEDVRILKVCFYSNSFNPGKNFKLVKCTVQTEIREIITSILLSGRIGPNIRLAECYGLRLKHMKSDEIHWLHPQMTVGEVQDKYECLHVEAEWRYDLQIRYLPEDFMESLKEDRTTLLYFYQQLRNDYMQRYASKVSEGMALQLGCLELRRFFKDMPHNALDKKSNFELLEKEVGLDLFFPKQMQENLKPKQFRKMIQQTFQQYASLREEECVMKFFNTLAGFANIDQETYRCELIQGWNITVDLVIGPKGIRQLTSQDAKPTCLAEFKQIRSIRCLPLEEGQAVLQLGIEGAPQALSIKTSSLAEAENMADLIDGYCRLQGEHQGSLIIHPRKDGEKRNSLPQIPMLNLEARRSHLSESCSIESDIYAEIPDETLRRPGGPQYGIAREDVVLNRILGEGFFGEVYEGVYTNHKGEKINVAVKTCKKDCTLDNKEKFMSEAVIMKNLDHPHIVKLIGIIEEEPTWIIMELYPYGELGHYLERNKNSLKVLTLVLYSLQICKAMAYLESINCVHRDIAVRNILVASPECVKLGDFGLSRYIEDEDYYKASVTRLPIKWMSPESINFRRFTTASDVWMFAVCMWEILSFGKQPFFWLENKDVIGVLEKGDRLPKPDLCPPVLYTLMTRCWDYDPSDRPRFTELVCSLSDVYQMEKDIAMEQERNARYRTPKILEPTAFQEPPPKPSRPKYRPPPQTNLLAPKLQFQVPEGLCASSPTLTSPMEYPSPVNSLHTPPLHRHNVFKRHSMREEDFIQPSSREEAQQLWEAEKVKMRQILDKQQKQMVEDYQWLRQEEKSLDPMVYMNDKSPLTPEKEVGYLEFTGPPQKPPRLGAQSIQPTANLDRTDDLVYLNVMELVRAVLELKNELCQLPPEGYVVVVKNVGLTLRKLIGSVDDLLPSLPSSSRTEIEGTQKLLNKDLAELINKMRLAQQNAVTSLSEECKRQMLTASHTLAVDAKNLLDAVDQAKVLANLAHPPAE
T21 sequence (Q13188 whole entry): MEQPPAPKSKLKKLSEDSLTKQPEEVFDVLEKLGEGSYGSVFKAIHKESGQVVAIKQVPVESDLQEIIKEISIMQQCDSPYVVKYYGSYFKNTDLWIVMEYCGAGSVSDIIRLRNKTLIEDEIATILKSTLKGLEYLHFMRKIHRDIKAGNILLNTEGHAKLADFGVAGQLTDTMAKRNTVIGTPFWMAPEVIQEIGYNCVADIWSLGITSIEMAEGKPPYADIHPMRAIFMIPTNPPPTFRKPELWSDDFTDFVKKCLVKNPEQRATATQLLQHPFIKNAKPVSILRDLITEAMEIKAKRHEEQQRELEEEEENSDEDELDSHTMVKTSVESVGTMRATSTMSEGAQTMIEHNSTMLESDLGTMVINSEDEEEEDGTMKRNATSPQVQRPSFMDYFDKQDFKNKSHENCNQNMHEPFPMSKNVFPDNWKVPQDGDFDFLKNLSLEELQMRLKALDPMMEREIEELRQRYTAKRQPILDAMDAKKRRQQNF
T17 sequence (P07948 whole entry): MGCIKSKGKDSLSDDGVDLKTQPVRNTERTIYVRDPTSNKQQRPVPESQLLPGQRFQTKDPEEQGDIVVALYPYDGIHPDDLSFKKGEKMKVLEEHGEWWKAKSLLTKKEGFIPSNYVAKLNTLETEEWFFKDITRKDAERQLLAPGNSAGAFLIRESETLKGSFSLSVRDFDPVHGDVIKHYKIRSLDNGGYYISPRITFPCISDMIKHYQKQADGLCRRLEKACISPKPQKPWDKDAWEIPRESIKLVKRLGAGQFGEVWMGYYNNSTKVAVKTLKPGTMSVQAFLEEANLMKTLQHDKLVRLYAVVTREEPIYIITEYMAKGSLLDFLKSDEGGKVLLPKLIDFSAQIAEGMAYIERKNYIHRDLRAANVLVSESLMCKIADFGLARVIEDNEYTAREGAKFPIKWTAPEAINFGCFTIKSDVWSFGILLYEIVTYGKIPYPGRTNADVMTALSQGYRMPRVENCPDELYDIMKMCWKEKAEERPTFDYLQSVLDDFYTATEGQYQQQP

Compound CCN1C(=O)N(c2c(F)c(OC)cc(OC)c2F)Cc2cnc3[nH]c(CN4CCOCC4)cc3c21 [INCB054828, pemigatinib] has an inhibition at 0.1 µM (ABL1(G250E)) of 1%, an inhibition at 0.1 µM (AKT3) of 3% and an inhibition at 0.1 µM (ALK) of -1%. For the same compound, the inhibition at 0.1 µM [1] was 7%, the inhibition at 0.1 µM (Abl (Q252H)) was 1% and the inhibition at 0.1 µM (AurA) was 6%. The inhibition at 0.1 µM (CDK1/Cycline B1) was 5%, the inhibition at 0.1 µM (CK1d) was -1% and the inhibition at 0.1 µM (Ca MK2a) was 2%. The inhibition at 0.1 µM (DCAMKL2) was 3%, the inhibition at 0.1 µM (DYRK4) was -4% and the inhibition at 0.1 µM (EGFR(T790M)) was -1%. For the same compound, the inhibition at 0.1 µM (FYN) was -1%, the inhibition at 0.1 µM (GSK3-alpha) was 2% and the inhibition at 0.1 µM (HIPK1) was -1%. For the same compound, the inhibition at 0.1 µM (IKBKE (IKK epsilon)) was -2%, the inhibition at 0.1 µM (LCK) was -2% and the inhibition at 0.1 µM (LYN) was 14%. It also gave an inhibition at 0.1 µM (MARK4) of -4%, an inhibition at 0.1 µM (MSK2) of -7% and an inhibition at 0.1 µM (MST1) of -1%. For the same compound, the inhibition at 0.1 µM (MST2) was 3%, the inhibition at 0.1 µM (Mer) was -1% and the inhibition at 0.1 µM (NEK2) was -4%. The inhibition at 0.1 µM (NTRK2 (TRKB)) was 1%, the inhibition at 0.1 µM (NuaK1) was -3% and the inhibition at 0.1 µM (PDGFRA (D842V)) was 18%. It also gave an inhibition at 0.1 µM (PIM1) of -6%, an inhibition at 0.1 µM (PKC-eta) of -4% and an inhibition at 0.1 µM (PKD1) of -3%. For the same compound, the inhibition at 0.1 µM (PYK2) was -1%, the inhibition at 0.1 µM (ROCK1) was -3% and the inhibition at 0.1 µM (RSK1) was -2%. It also gave an inhibition at 0.1 µM (Ret (V804L)) of 0%, an inhibition at 0.1 µM (SGK1) of 1% and an inhibition at 0.1 µM (SRC) of 1%. The inhibition at 0.1 µM (TEC) was 19%, the inhibition at 0.1 µM (TRKC (NTRK3)) was 3% and the inhibition at 0.1 µM (TYRO3) was 1%. For the same compound, the inhibition at 0.1 µM (c-TAK1) was 2%, the inhibition at 0.1 µM (p38-delta) was 2% and the inhibition at 0.1 µM (p38a) was 1%.
